Measured values taken from patent EP0430884B1, “Insecticides and antiparasitic agents” (CIBA-GEIGY AG, priority 1989, dated 1991).

System: Haemonchus contortus und Trichostrongylus colubriformis
Test: B-3 test on sheep infected with nematodes (worm egg count in faeces)
Format: in vivo, Schafe
Description: Milbemycine mit einer 13β-Alkylthiogruppe sind als Insektizide und Parasitizide aus der Europäischen Offenlegungsschrift EP-0,184,173 bzw. dem korrespondierenden Britischen Patent GB-2,167,751B bekannt. Die biologische Aktivität der 13β-Ethylthiomilbemycine kann man jedoch überraschenderweise durch Einführung der erfindungsgemässen, terminalen [drawing 26] (worin R₃ und X die unter Formel I angegebenen Bedeutungen haben) in die 2-Position der 13β-Ethylgruppe signifikant erhöhen. Vergleicht man z.B. die Verbindung Nr. 1.14 aus obigen Publikationen [drawing 27] mit der erfindungsgemässen Substanz Nr. 1.13 (vgl. Tab. 1) [drawing 28] gemäss dem weiter unten beschriebenen biologischen Beispiel B-3 an Schafen, die mit den Nematoden Haemonchus contortus und Trichostrongylus colubriformis infiziert wurden, so findet man bei einmaliger intraruminaler Applikation von 0,1 mg Aktivsubstanz/kg Körpergewicht folgende Resultate (angegeben in Reduktion der Wurmeier im Kot verglichen mit der Zahl der Eier bei infizierten, aber unbehandelten Schafen):
Der Wirkstoff wird als Suspension formuliert mit einer Magensonde oder durch Injektion in den Pansen eines Schafes gegeben, das mit Haemonchus contortus und Trychostrongylus colubriformis künstlich infiziert worden ist. Pro Dosis werden 1 bis 3 Tiere verwendet. […]

## CC[C@H]1O[C@]2(CC[C@@H]1C)C[C@@H]1C[C@@H](C/C=C(\C)[C@H](SCCc3ccc(NC(=O)OC)cc3)[C@@H](C)/C=C/C=C3\CO[C@@H]4[C@H](O)C(C)=C[C@@H](C(=O)O1)[C@]34O)O2 [1.13, 13β-(2-[4-(Methoxycarbonylamino)phenyl]ethylthio)milbemycin A4]
Versuch 1, single intraruminal application of 0,1 mg Aktivsubstanz/kg Körpergewicht
  Reduktion der Wurmeier im Kot verglichen mit der Zahl der Eier bei infizierten, aber unbehandelten Schafen: 99%
Versuch 2 (Wiederholung von 1), single intraruminal application of 0,1 mg Aktivsubstanz/kg Körpergewicht
  Reduktion der Wurmeier im Kot verglichen mit der Zahl der Eier bei infizierten, aber unbehandelten Schafen: 93%
